Counter-ions that a name gives are not always drawn. Like-named read-outs stand apart in the source and are kept apart here.
Experiments:
[1] = target: T1, NK1 receptor (Cavia porcellus, UniProt P30547); test: Antagonism of iodinated tachykinin binding to NK1 receptors (Example A); parameters: species or system guinea pig
T1 construct: evaluated in guinea pig lungs (Keystone Biologicals, Cleveland, OH); tissue Keystone Biologicals, Cleveland, OH; host or cells: guinea pig lung membranes
Protocol: (§1) One skilled in the art can determine the NK1 receptor and NK2 receptor affinity in vitro as follows. The NK1 receptor affinity of tachykinin antagonists is evaluated in guinea pig lungs (Keystone Biologicals, Cleveland, OH) and affinity for the NK2 receptor is evaluated in HSKR-1 cells (which are mouse 3T3 fibroblasts expressing the human jejunal NK2 receptor). Tissues or cells are homogenized with a Polytron in 15 volumes of 50 mM Tris-HC1 buffer (pH 7.4, 4°C) and centrifuged. The pellet is resuspended in Tris-HCl buffer and is centrifuged; the pellet is washed twice by resuspension. The final pellet is resuspended at a concentration of 40 mg/ml for tissues and 20 mg/ml for cells in incubation buffer and remains at room temperature for at least 15 min prior to use. Receptor binding is initiated by addition of 250 ul membrane preparation in duplicate to 0.1 nM of the following radioligands: ^125I-Bolton Hunter Lys-3 labeled substance P and ^125iodohistidyl-1-neurokinin A; in a final volume of 500 ul of buffer containing 50 mM Tris-HCl (pH 7.4 at room temperature), 0.1% bovine serum albumin, 2 mM mangenese chloride, 40 ug/ml bacitracin, 4 µg/ml leupeptin and chymostatin, 10 µM thiorphan and various doses of the putative tachykinin antagonists. Incubations are performed at room temperature for 90 min (NK1 receptor assays) or 2 hr (NK2 receptor assay); binding is terminated by addition of 50 mM Tris-HCl buffer (pH 7.4, 4°C) and filtration under vacuum through GF/B filters presoaked with 0.1% polyethyleneimine (NK1 receptor assays) or 0.5% bovine serum albumin (NK2 receptor assay). Filter bound radioactivity is quantitated in a gamma counter. Nonspecific binding is defined as binding in the presence of 1 µM substance P or neurokinin A. Specific binding is calculated by subtracting nonspecific binding from total binding. Competition of iodinated SP or NKA binding by test compounds or standards is expressed as a percentage of this maximum binding. IC50 values (concentration required to inhibit 50% of receptor binding) are generated for each of the test compounds by nonlinear regression using an iterative curve fitting program (GraphPAD Inplot, San Diego, CA).
(§2) Tackykinin receptor binding (IC50 values) for representative compounds of the present invention is found in Table 1. The values in Table 1 were determined by the method of present Example A and represent the mean of several experiments, except where noted. […]

[2] = target: T2, human jejunal NK2 receptor (Homo sapiens, UniProt P21452); test: Antagonism of iodinated tachykinin binding to NK2 receptors (Example A)
T2 construct: expressed in transfected cells; host or cells: HSKR-1 cells (mouse 3T3 fibroblasts)
T2 sequence (P21452 1-398): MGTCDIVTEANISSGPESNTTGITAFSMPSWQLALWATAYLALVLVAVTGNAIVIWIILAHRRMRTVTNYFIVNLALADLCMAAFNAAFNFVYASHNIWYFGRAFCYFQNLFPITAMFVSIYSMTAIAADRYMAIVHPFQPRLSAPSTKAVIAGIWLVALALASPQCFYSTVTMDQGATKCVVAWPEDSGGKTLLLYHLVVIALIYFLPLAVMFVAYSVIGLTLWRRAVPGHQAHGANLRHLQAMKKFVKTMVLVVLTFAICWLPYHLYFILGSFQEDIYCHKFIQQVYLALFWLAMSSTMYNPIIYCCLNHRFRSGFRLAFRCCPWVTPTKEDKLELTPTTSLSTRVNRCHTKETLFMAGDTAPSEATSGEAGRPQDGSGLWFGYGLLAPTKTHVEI
Protocol: as §1, §2

[3] = read-out: Tachykinin Receptor Binding NK1 IC50, guinea pig lungs membranes, 0.1 nM 125I-Bolton Hunter Lys-3 labeled substance P, 90 min room temperature, mean of several experiments
[4] = read-out: Tachykinin Receptor Binding NK2 IC50, HSKR-1 cells (mouse 3T3 fibroblasts expressing the human jejunal NK2 receptor), 0.1 nM 125iodohistidyl-1-neurokinin A, 2 hr room temperature, mean of several experiments

T1 sequence (P30547 whole entry): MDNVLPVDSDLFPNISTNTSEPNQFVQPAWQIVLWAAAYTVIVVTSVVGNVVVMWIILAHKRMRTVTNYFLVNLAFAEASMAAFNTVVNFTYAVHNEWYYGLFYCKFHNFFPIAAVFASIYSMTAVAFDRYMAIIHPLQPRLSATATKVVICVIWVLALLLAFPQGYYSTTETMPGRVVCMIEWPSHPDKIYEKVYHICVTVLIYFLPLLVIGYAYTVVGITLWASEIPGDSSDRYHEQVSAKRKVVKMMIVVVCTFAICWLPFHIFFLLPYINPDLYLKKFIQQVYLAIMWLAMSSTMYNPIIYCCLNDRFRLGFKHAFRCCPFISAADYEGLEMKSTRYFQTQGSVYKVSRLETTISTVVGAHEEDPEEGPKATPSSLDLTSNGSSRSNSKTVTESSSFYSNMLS

Row | Structure (SMILES) | IC50 [1] [nM] | IC50 [2] [nM] | IC50 [1, 3] [nM] | IC50 [2, 4] [nM]
1 | COc1cc(C(=O)N2CC[C@](CCN3CCC(C(=O)N4CCN(CCC(=O)O)CC4)(c4ccccc4)CC3)(c3ccc(Cl)c(Cl)c3)C2)cc(OC)c1OC [Example 28.2, (R)-1-(3,4,5-trimethoxybenzoyl)-3-(2-(4-phenyl-4-((4-carboxyethylpiperazin-1-yl)carboxamido)piperidine)ethyl)-3-(3,4-dichlorophenyl)pyrrolidine hydrochloric acid salt] | 19.6 | 3.73 | – | –
2 | CCOC(=O)CCCN1CCN(C(=O)C2(c3ccccc3)CCN(CC[C@]3(c4ccc(Cl)c(Cl)c4)CCN(C(=O)c4cc(OC)c(OC)c(OC)c4)C3)CC2)CC1 [Example 29.2, (R)-1-(3,4,5-trimethoxybenzoyl)-3-(2-(4-phenyl-4-((4-carboethoxypropylpiperazin-1-yl)carboxamido)piperidine)ethyl)-3-(3,4-dichlorophenyl)pyrrolidine fumaric acid salt] | 11.9 | 3.21 | – | –
3 | COc1cc(C(=O)N2CC[C@](CCN3CCC(C(=O)N4CCN(CCCC(=O)O)CC4)(c4ccccc4)CC3)(c3ccc(Cl)c(Cl)c3)C2)cc(OC)c1OC [Example 30.2, (R)-1-(3,4,5-trimethoxybenzoyl)-3-(2-(4-phenyl-4-((4-carboxypropylpiperazin-1-yl)carboxamido)piperidine)ethyl)-3-(3,4-dichlorophenyl)pyrrolidine hydrochloric acid salt] | 3.4 | 3.6 | – | –
4 | CCOC(=O)OCOC(=O)CN1CCN(C(=O)C2(c3ccccc3)CCN(CC[C@]3(c4ccc(Cl)c(Cl)c4)CCN(C(=O)c4cc(OC)c(OC)c(OC)c4)C3)CC2)CC1 [Example 31.2, (R)-1-(3,4,5-trimethoxybenzoyl)-3-(2-(4-phenyl-4-((4-carbo(ethoxycarbonyloxymethoxy)methylpiperazin-1-yl)carboxamido)piperidine)ethyl)-3-(3,4-dichlorophenyl)pyrrolidine fumaric acid salt] | – | – | 11.7 | 9.1
5 | COc1cc(C(=O)N2CC[C@](CCN3CCC(C(=O)N4CCN(CC(=O)OCOC(=O)C(C)(C)C)CC4)(c4ccccc4)CC3)(c3ccc(Cl)c(Cl)c3)C2)cc(OC)c1OC [Example 32.2, (R)-1-(3,4,5-trimethoxybenzoyl)-3-(2-(4-phenyl-4-((4-carbo(t-butylcarbonyloxymethoxy)methylpiperazin-1-yl)carboxamido)piperidine)ethyl)-3-(3,4-dichlorophenyl)pyrrolidine fumaric acid salt] | – | – | 21.2 | 13.9
6 | CCN(CC)C(=O)COC(=O)CN1CCN(C(=O)C2(c3ccccc3)CCN(CC[C@]3(c4ccc(Cl)c(Cl)c4)CCN(C(=O)c4cc(OC)c(OC)c(OC)c4)C3)CC2)CC1 [Example 33.2, (R)-1-(3,4,5-trimethoxybenzoyl)-3-(2-(4-phenyl-4-((4-carbo(N,N-diethylcarboxamidomethoxy)methylpiperazin-1-yl)carboxamido)piperidine)ethyl)-3-(3,4-dichlorophenyl)pyrrolidine fumaric acid salt] | – | – | 3.95 | 2.43
7 | CCCC(=O)OCOC(=O)CN1CCN(C(=O)C2(c3ccccc3)CCN(CC[C@]3(c4ccc(Cl)c(Cl)c4)CCN(C(=O)c4cc(OC)c(OC)c(OC)c4)C3)CC2)CC1 [Example 35.2, (R)-1-(3,4,5-trimethoxybenzoyl)-3-(2-(4-phenyl-4-((4-carbo(propylcarbonyloxymethoxy)methylpiperazin-1 yl)carboxamido)piperidine)ethyl)-3-(3,4-dichlorophenyl)pyrrolidine fumaric acid salt] | – | – | 14.7 | 11.7
8 | COc1cc(C(=O)N2CC[C@](CCN3CCC(C(=O)N4CCN(CC(=O)OCC(=O)N(CCO)CCO)CC4)(c4ccccc4)CC3)(c3ccc(Cl)c(Cl)c3)C2)cc(OC)c1OC [Example 36.1, (R)-1-(3,4,5-Trimethoxybenzoyl)-3-(2-(4-phenyl-4-((4-carbo(N,N-di-(2-hydroxyethyl)carboxamidomethoxy)methylpiperazin-1-yl)carboxamido)piperidin-1-yl)ethyl)-3-(3,4-dichlorophenyl)pyrrolidine] | – | – | 2.68 | 2.32
